Source: patent US20240122909A1, “TREATMENTS OF HEREDITARY ANGIOEDEMA” (KALVISTA PHARMACEUTICALS LIMITED, priority 2021, published 2024)

How the values were obtained:
[1] = Phase 2 study Part 2, efficacy in on-demand treatment of HAE attacks; assay type: in vivo, human
Description: In Part 2, the subjects were randomized 1:1 to 2 treatment sequences. This part of the study was conducted away from the clinic or hospital. In Sequence 1 (study arm 1) subjects received a single dose of 600 mg of the compound to treat the first eligible HAE attack. Following resolution of this attack, subjects received a single dose of placebo to treat the second eligible HAE attack.
In Sequence 2 (study arm 2) subjects received a single dose of placebo to treat the first eligible HAE attack. Following resolution of this attack, subjects received a single dose of 600 mg of the compound to treat the second eligible HAE attack.
Laryngeal or facial attacks were not eligible for treatment. HAE attacks must have been treated within the first hour of onset and before reaching severe on the global attack severity scale. Subjects must also have been able to identify the start of a HAE attack. Upon onset of the eligible HAE attack, subjects notified the dedicated study physician or qualified designee with a description of the HAE attack. The dedicated study physician or qualified designee confirmed eligibility of the HAE attack and agreed to study drug being administered. HAE attacks required documentation, on the Subject Diary, of attack location, attack symptoms, time of onset, attack severity, and time of last substantial meal prior to dosing. Subjects took study drug, as instructed, and completed timed assessments of their HAE attack symptoms for a 48 h period as documented below in Table 3. The dedicated study physician or qualified designee contacted the subject within 24 h of the eligible HAE attack to confirm the subject's safety and wellbeing. Subjects were instructed to contact the dedicated study physician or qualified designee in case of any safety concerns. In the case of hypersensitivity, subjects contacted the dedicated study physician or qualified designee or contact the nearest emergency service. The dedicated study physician or qualified designee was available 24 h/day and 7 days/week to receive subject calls.
Time to use of conventional attack treatment was assessed. The subject diary captured the efficacy endpoints including time to use of conventional attack treatment and HAE attack severity.
Overall HAE attack severity was assessed on a 5-point Likert scale (5LS) scored as none, mild, moderate, severe and very severe.
Change in HAE attack severity was assessed using a 7-point transition question (7TQ), scored as Much better/Better/A little better/No change/A little worse/Worse/Much worse.
The type of HAE attack symptoms (abdominal pain, skin pain and skin swelling) was each assessed on a 100 mm visual analogue scale (VAS) anchored at 0 (none) and 100 (very severe).
The primary endpoint, time to use of conventional attack treatment, was analyzed using a generalization of Gehan's test proposed by Feingold and Gillespie (1996) (Crossover trials with censored data. Statistics in Medicine 1996; 15(10): 953-967) to reflect the repeat measures on each subject. Subjects were treated as censored if no worsening occurs within 12 h of study drug.
The proportion of HAE attacks that worsen by one level or more on the 5LS or that require conventional attack treatment within 12 h of study drug was analyzed using Prescott's test (1981) (The comparison of success rates in cross-over trials in the presence of an order effect. Applied Statistics 1981; 30: 9-15) to compare the treatment arms.
A similar approach to that used for the primary endpoint was followed for the analysis of the time between study drug and HAE attack worsening by one level or more on the 5LS or use of conventional attack treatment, whichever comes first within 12 h. […]

[2] = Phase 1 multiple dose study, safety, tolerability and ECG; assay type: in vivo, human; settings: total 1800 mg, healthy adults
Description: This was a phase 1, double-blind, placebo-controlled, multiple-dose, multiple-cohort study to evaluate safety and tolerability of the compound as well as of the ECG effects of the compound formulated as 100 mg Film Coated Tablets in healthy adult male and female subjects.
Four (4) cohorts were evaluated. Cohorts 1, 2 and 3 included 8 subjects each. Cohort 4 included 18 subjects. Every attempt was made to include an equal number of male and female subjects in each cohort.
During the study, oral doses of 600 mg of the compound as Film Coated Tablets (six 100 mg tablets) or 6 matching placebo tablets were administered once every 8 hours (Cohort 1) every 4 hours (Cohort 2), or every 2 hours (Cohort 3 and 4) to healthy adult male and female subjects up to a total dose of 1800 mg. In Cohorts 1, 2 and 3, 6 subjects received the compound as 100 mg Film Coated Tablets and 2 subjects received the placebo for a total of 8 subjects per cohort. In Cohort 4, 12 subjects received the compound as 100 mg Film Coated Tablets and 6 subjects received the placebo for a total of 18 subjects.
A Holter monitor was attached to each subject in order to continuously record ECGs. The monitor was attached 1 hour before the first dose and remained attached until after the final blood sample collection. The electrodes for the Holter monitor were checked by a member of the clinic staff at appropriate intervals to ensure they were attached.

[3] = 3 x 600 mg every 8, 4 or 2 hours

COCc1nn(Cc2ccc(Cn3ccccc3=O)cc2)cc1C(=O)NCc1nccc(OC)c1F [compound of Formula A, N-[(3-fluoro-4-methoxypyridin-2-yl)methyl]-3-(methoxymethyl)-1-({4-[(2-oxopyridin-1-yl)methyl]phenyl}methyl)pyrazole-4-carboxamide]
PGI-C: Median time to HAE attack being (1) rated a little worse or higher for two consecutive time points, or (2) use of conventional attack treatment, whichever comes first ([1]; 600 mg, N = 53, at 12 hours): >12 h | PGI-C: Median time to HAE attack being rated a little worse or higher for two consecutive time points ([1]; 600 mg, N = 53, at 12 hours): >12 h | PGI-C: Proportion of HAE attacks that were stable or improved ([1]; 600 mg, N = 53, at 12 hours): 48 (90.6) n (%) | PGI-S: Median time to HAE attack resolution (rating of none) ([1]; 600 mg, N = 53, at 12 hours): >12 h | PGI-S: Median time to improvement by one level or more from baseline ([1]; 600 mg, N = 53, at 12 hours): 9.0 h | PGI-S: Proportion of HAE attacks that improved by 1 level or more from baseline ([1]; 600 mg, N = 53, at 12 hours): 30 (56.6) n (%) | PGI-S: Proportion of patients with HAE attack resolution (rating of none) ([1]; 600 mg, N = 53, at 12 hours): 20 (37.7) n (%) | VAS: Proportion of HAE attacks with symptom relief (50% reduction from baseline in composite VAS for three consecutive time points) ([1]; 600 mg, N = 53, at 12 hours): 33 (62.3) n (%) | PGI-C: Median time to HAE attack being (1) rated a little worse or higher for two consecutive time points, or (2) use of conventional attack treatment, whichever comes first ([1]; 600 mg, N = 53, at 24 hours): >24 h | PGI-C: Median time to HAE attack being rated a little worse or higher for two consecutive time points ([1]; 600 mg, N = 53, at 24 hours): >24 h | PGI-C: Proportion of HAE attacks that were stable or improved ([1]; 600 mg, N = 53, at 24 hours): 45 (84.9) n (%) | PGI-S: Median time to HAE attack resolution (rating of none) ([1]; 600 mg, N = 53, at 24 hours): 18.0 h | PGI-S: Median time to improvement by one level or more from baseline ([1]; 600 mg, N = 53, at 24 hours): 9.0 h | PGI-S: Proportion of HAE attacks that improved by 1 level or more from baseline ([1]; 600 mg, N = 53, at 24 hours): 35 (66.0) n (%) | PGI-S: Proportion of patients with HAE attack resolution (rating of none) ([1]; 600 mg, N = 53, at 24 hours): 28 (52.8) n (%) | VAS: Proportion of HAE attacks with symptom relief (50% reduction from baseline in composite VAS for three consecutive time points) ([1]; 600 mg, N = 53, at 24 hours): 39 (73.6) n (%) | severity of the HAE attack, composite VAS score ([1]; 600 mg, over 12 hours and 24 hours): reduced the severity of the HAE attack | attacks improved to “none” on PGI-S (5LS) ([1]; 600 mg, within 12 hours): 37.7% | number of attacks stabilized or improved by PGI-S (5LS) or use of rescue ([1]; 600 mg, within 12 hours): significantly increased the number of attacks stabilized or improved | attacks improved to “none” on PGI-S (5LS) ([1]; 600 mg, within 24 hours): 52.8% | Median time to symptom relief ([1]; abdominal attacks): 1.5 h | attacks that achieved attack resolution within 24 hours ([1]; abdominal attacks): 61.1% | attacks that achieved symptom relief (PGI-C at least “A little better” within 12 hours) ([1]; abdominal attacks): 77.8% | Median time to symptom relief ([1]; peripheral attacks): 2.5 h | attacks that achieved attack resolution within 24 hours ([1]; peripheral attacks): 50.0% | attacks that achieved symptom relief (PGI-C at least “A little better” within 12 hours) ([1]; peripheral attacks): 77.5% | serious adverse events [2, 3]: No serious adverse events | severity of reported adverse events [2, 3]: mild | effects on ECG parameters ([2]; 3 x 600 mg): No clinically relevant effects on the studied ECG parameters
